{
  "source": "paper PMC3838783",
  "about": "(Applied Biochemistry and Biotechnology, 2013)",
  "origin": "cited, not measured here",
  "system": "rats",
  "data": [
    {"smiles": "CC(=O)NO", "note": "[acetohydroxyamic acid]", "values": [
      {"measurement": "Teratogenicity", "value": "teratogenic"}
    ]}
  ]
}
